Assay results as given in ChEMBL document CHEMBL1201862, “PubChem BioAssay data set” (2004).
Active and inactive are the calls of the source.

Columns and labels:
HEK293 [1] = experiment: EBV LMP1 TES2 canonical NF-kB signalling blockers – cell-based, HEK293, luciferase, cherry-pick, dose response (AID 588343); type: functional; settings: Homo sapiens
[2] = biological target: Latent membrane protein 1 (Human herpesvirus 4 (strain B95-8), UniProt P03230); experiment: LMP1 TES1 pathway selectivity over dsRED control – imaging, HEK293T, dual-color eGFP/dsRED, cherry-picks, selectivity assay for LMP1 NF-kB inhibitor project, dose response (AID 588398); type: functional, cell-based
HEK293 [3] = experiment: inhibition of NOD1-driven NF-kB reporter – cell-based, luminescence, uHTS, primary screen (AID 1578); type: functional; settings: Homo sapiens
[4] = system: Streptococcus sp. 'group A'; experiment: Streptococcus pyogenes SK(-)GAS viability under kanamycin – luminescence, BacTiterGlo, confirmation, counter-screen for streptokinase expression inhibitor project, dose response (AID 1900); type: functional, organism-based
HEK293 [5] = experiment: cells; type: functional, cell-based; settings: Homo sapiens
Streptokinase A = biological target: T1, Streptokinase A (Streptococcus pyogenes serotype M1, UniProt P10520); experiment: viability-normalized secreted streptokinase activity reduction – plasminogen activation absorbance, OD405, dose response (AID 1914); type: functional, Streptococcus pyogenes M1 GAS;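 note: secreted streptokinase activity via plasminogen activation per viability signal from cell pellet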
T1 sequence (P10520 whole entry): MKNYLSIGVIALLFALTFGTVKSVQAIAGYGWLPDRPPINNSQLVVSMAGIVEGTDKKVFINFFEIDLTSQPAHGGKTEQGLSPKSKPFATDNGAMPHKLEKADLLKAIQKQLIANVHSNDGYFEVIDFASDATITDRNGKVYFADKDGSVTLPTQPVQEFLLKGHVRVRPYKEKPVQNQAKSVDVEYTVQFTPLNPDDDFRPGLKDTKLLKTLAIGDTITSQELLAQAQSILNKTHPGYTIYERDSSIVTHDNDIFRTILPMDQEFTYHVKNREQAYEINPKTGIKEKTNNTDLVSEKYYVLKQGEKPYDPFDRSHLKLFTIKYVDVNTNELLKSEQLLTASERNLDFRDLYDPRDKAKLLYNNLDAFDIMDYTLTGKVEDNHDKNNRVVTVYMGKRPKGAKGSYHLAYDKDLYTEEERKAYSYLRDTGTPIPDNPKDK

HEK293 [6] = experiment: cells; type: functional, cell-based; settings: Homo sapiens; remark: listed apart in the source
[7] = CCR5-tropic HIV-1 fusion blockers – cell-based, CCR5-tropic Env, dose response (AID 2279); type: functional
HEK293 [8] = experiment: NOD2 signaling inhibitors in MDP-stimulated cells, cell-based, uHTS, luminescence (AID 2001); type: functional; settings: Homo sapiens
Streptococcus = experiment: GAS UMAA2166 growth inhibition – luminescence, BacTiterGlo, counter-screen for streptokinase expression inhibitor project, dose response (AID 1915); type: functional, organism-based;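 note: potency for reduction of bacterial viability or growth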
Cysteine protease ATG4B = Cysteine protease ATG4B (Homo sapiens, UniProt Q9Y4P1); type: functional;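 note: Fluorescence-based dose-response confirmation assay measuring inhibition of ATG4B activity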
Phospholipase A2 = Phospholipase A2 (Homo sapiens, UniProt P04054); type: functional;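 note: confirmatory dose-response counterscreen on phospholipase A2, testing hits that came from an ultra-high-throughput screen for ATG4B inhibitors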
Vero = experiment: viability of Vero cells under compound – cytotoxicity control for flavivirus capping enzyme inhibitors (AID 588742); type: functional; settings: Chlorocebus sabaeus
Genome polyprotein = Genome polyprotein (dengue virus type 2, UniProt P29990); experiment: flavivirus cap methylation enzyme inhibition – biochemical, confirmation dose response, primary screen (AID 588689); type: functional
[9] = Luminescence Cell-Based Dose Retest to Confirm Inhibitors of Cancer Stem Cells. [Related pubchem assays (depositor defined):AID2717, AID2721]; type: functional; settings: Homo sapiens
[10] = biological target: T2, Ubiquitin-conjugating enzyme E2 N (Homo sapiens, UniProt P61088); type: functional;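 note: Dose-response confirmation in a TR-FRET assay detecting UBC13-driven polyubiquitin chain formation, inhibition measured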
T2 sequence (P61088 whole entry): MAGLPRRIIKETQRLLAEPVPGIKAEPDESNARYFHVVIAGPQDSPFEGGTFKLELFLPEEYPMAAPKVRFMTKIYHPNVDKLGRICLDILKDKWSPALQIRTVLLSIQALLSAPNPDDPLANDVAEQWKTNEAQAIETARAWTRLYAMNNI

[11] = biological target: T3, Multidrug resistance protein CDR2 (Candida albicans (strain SC5314 / ATCC MYA-2876) (Yeast), UniProt P78595); experiment: inhibition of Nile Red efflux via Candida CDR2 – S. cerevisiae AD1-8u, singleplex, Cherry Pick1 hits, dose response (AID 588604); type: functional
[12] = biological target: Multidrug resistance protein CDR1 (Candida albicans, UniProt P43071); experiment: Candida albicans Cdr1 pump inhibition curves – singleplex, Cherry Pick2 set, dose response (AID 623996); type: functional; settings: read-out: EC50_MICROM
[13] = biological target: T3, Multidrug resistance protein CDR2; experiment: blockers of Nile Red efflux by Candida CDR2 – S. cerevisiae AD1-8u, singleplex, Cherry Pick2 set, dose response (AID 623994); type: functional; settings: read-out: EC50_MICROM
[14] = biological target: Benomyl/methotrexate resistance protein (Candida albicans, UniProt P28873); experiment: Candida albicans Mdr1 pump blockade titration – singleplex, Cherry Pick2 set, dose response (AID 623992); type: functional; settings: read-out: EC50_MICROM
INS1 [15] = experiment: suppression of cytokine-induced beta-cell apoptosis – INS-1E, caspase luminescence, dry powder, beta-cell apoptosis inhibitor project, dose response (AID 488848); type: functional, cell-based; settings: Rattus norvegicus
INS1 [16] = experiment: suppression of NO production in INS-1E cells – cell-based, Griess absorbance, dry powder, set 2, dose response (AID 488868); type: functional; settings: Rattus norvegicus
Phospholipase D1 = Phospholipase D1 (Homo sapiens, UniProt Q13393); experiment: cellular phospholipase D1 inhibition IC50 – cell-based, dose response (AID 602151); type: functional;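 note: cellular PLD1 assay in Calu-1 cells stimulated with PMA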
Phospholipase D2 = Phospholipase D2 (Homo sapiens, UniProt O14939); experiment: cellular phospholipase D2 inhibition IC50 – cell-based, dose response (AID 602147); type: functional;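 note: cellular assay in HEK293 cells overexpressing GFP-tagged PLD2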
CAAX prenyl protease 2 [17] = biological target: T4, CAAX prenyl protease 2 (Saccharomyces cerevisiae S288c, UniProt Q03530); type: biochemical
T4 sequence (Q03530 whole entry): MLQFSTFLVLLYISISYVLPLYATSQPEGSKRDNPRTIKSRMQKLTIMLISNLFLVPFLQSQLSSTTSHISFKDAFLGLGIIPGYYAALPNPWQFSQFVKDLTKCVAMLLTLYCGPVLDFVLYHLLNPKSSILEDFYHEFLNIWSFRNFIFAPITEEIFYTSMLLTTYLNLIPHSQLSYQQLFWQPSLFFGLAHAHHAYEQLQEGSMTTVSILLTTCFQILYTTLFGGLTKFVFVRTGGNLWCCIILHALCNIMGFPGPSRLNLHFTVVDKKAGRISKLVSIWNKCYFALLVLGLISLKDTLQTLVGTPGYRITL

CAAX prenyl protease 2 [18] = biological target: T4, CAAX prenyl protease 2; experiment: inhibition of Rce1p peptide cleavage – biochemical, plate reader, dry powder retest, dose response (AID 588851)

T3 sequence (P78595 whole entry): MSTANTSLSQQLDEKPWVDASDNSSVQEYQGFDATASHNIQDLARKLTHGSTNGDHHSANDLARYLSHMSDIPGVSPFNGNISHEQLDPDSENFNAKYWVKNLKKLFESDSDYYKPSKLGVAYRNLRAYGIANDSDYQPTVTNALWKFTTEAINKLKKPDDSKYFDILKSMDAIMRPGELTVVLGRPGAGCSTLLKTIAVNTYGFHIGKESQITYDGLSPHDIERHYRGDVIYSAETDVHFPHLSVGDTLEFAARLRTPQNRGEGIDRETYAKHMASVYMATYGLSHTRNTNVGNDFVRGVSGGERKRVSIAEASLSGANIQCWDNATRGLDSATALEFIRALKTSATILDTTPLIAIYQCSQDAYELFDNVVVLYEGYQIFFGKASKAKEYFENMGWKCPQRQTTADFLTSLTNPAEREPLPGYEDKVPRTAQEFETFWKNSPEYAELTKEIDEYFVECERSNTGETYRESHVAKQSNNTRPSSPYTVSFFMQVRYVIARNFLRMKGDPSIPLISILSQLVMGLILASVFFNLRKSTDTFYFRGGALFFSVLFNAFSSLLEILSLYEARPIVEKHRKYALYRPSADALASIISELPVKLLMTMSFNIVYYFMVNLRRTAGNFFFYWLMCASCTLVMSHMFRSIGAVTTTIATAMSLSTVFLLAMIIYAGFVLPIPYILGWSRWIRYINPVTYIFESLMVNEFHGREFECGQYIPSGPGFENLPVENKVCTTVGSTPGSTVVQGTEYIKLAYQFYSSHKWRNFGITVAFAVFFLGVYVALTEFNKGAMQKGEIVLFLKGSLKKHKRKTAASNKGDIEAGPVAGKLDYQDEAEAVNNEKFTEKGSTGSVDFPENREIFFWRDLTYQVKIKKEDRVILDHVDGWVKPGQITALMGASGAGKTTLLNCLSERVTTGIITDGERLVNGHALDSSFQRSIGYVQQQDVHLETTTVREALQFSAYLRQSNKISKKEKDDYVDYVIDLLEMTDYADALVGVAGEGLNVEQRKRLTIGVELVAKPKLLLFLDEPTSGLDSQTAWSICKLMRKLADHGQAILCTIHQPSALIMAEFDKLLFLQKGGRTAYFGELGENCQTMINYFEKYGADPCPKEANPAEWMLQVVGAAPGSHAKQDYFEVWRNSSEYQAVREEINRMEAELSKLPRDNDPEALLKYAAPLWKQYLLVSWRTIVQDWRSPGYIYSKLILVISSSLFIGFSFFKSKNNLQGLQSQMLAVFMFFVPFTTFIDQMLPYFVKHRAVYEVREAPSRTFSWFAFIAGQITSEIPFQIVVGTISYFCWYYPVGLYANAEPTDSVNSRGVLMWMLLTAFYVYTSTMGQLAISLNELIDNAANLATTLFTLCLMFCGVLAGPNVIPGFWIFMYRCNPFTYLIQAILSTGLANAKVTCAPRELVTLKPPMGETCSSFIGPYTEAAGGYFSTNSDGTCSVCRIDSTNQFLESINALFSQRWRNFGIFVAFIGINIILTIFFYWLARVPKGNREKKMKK
Benomyl/methotrexate resistance protein, sequence (P28873 whole entry): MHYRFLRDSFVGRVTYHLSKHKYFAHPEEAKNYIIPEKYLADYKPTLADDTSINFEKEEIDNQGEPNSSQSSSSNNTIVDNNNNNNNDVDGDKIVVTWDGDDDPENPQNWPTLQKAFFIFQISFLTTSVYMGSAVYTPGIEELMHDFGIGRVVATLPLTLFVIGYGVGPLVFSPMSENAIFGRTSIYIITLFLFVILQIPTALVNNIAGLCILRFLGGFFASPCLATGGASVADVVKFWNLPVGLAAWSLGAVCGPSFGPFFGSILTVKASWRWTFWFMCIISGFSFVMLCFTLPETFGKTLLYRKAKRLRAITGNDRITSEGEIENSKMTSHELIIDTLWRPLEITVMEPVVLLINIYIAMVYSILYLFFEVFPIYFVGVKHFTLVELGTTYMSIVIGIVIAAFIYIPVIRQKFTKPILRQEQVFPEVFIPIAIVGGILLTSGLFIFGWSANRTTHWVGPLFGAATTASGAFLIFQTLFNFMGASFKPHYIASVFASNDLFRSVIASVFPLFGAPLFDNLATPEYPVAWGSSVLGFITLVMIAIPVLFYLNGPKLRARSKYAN
Phospholipase D2, sequence (O14939 whole entry): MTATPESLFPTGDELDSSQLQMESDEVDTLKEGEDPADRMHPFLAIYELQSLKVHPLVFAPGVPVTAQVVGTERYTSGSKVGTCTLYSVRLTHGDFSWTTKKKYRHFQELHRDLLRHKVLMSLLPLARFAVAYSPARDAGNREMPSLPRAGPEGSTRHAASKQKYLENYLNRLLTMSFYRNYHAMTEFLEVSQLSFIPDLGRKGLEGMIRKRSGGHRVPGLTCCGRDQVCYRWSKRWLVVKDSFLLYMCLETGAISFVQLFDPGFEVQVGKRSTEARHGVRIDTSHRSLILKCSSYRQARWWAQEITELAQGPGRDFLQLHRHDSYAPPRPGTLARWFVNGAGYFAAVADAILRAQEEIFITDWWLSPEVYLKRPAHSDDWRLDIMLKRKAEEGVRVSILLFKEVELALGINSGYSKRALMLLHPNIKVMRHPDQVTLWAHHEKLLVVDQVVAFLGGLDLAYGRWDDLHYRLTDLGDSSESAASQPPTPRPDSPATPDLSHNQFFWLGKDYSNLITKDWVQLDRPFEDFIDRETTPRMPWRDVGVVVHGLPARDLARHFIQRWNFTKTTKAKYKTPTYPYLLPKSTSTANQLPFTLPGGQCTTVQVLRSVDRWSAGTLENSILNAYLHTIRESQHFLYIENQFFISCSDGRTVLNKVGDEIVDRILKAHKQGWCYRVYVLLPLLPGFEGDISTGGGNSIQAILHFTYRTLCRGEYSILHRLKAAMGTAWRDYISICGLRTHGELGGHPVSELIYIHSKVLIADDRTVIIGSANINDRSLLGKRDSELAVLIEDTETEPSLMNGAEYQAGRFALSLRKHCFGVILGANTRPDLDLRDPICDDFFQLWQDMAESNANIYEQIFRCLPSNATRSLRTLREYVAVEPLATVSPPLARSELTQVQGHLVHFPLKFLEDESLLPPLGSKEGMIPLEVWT
Genome polyprotein, sequence (P29990 2492-3391 limits assumed): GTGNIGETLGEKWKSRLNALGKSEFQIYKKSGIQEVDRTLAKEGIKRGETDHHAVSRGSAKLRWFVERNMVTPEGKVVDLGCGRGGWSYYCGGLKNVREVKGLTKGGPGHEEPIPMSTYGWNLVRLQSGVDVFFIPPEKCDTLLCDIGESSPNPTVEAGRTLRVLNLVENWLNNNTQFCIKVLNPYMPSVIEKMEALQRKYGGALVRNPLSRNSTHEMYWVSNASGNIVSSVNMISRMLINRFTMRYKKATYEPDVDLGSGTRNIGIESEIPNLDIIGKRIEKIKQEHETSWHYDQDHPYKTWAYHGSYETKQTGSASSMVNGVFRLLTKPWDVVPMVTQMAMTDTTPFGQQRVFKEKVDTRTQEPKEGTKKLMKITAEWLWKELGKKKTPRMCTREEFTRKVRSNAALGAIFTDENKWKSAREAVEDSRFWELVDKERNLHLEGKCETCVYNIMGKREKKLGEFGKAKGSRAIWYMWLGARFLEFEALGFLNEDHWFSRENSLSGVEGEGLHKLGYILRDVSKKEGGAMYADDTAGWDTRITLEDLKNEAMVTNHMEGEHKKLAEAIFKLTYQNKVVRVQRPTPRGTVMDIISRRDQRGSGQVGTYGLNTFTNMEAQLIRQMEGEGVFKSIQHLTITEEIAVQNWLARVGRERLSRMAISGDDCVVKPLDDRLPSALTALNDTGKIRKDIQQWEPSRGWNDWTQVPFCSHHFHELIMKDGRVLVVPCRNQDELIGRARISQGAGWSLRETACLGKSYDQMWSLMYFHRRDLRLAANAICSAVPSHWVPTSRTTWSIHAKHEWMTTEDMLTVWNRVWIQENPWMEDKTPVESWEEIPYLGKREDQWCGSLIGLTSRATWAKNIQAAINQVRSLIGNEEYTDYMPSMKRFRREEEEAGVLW
Latent membrane protein 1, sequence (P03230 whole entry): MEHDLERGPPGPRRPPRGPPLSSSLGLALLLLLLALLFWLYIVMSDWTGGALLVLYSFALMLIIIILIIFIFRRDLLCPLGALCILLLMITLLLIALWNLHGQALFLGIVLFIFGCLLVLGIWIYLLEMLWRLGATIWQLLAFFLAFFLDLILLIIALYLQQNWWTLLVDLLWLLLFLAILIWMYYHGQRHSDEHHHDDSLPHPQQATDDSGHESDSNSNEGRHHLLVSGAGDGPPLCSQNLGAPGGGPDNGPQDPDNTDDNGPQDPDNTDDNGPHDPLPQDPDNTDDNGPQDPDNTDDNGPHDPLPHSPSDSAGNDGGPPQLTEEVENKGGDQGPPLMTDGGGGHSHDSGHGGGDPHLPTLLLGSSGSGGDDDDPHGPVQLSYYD
Phospholipase A2, sequence (P04054 whole entry): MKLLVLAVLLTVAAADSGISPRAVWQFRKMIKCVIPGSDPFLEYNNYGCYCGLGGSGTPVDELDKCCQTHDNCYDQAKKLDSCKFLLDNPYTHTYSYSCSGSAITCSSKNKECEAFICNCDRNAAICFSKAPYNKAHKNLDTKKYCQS
Cysteine protease ATG4B, sequence (Q9Y4P1 whole entry): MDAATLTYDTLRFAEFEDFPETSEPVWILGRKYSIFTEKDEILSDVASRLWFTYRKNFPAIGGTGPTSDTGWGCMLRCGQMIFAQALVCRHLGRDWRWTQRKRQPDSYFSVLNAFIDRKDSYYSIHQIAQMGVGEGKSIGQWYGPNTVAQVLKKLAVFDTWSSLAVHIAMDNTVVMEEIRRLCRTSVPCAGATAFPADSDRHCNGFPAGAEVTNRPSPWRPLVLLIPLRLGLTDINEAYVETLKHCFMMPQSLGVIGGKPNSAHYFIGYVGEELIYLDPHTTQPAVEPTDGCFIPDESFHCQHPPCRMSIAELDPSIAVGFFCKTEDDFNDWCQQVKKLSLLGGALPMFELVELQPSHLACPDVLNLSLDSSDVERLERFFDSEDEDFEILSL

O=C(OC1CCN(CCCl)CC1)C(c1ccccc1)c1ccccc1
active: AC50 (HEK293 [1]) 24.3 µM | AC50 [2] 24.2 µM

O=C(O)CCn1cc(/C=C/C(=O)c2ccc(Cl)cc2)c(-c2cccc(Br)c2)n1
active: EC50 (HEK293 [3]) 6.52 µM | EC50 [4] 4.35 µM | IC50 (HEK293 [5]) 10.6 µM | EC50 (Streptokinase A) 0.874 µM | IC50 (HEK293 [6]) 17.9 µM | IC50 [7] 27.8 µM | IC50 (HEK293 [8]) 4.06 µM | EC50 (Streptococcus) 6.69 µM | IC50 (Cysteine protease ATG4B) 13.5 µM | IC50 (Phospholipase A2) 8.65 µM | CC50 (Vero) > 40 µM | IC50 (Genome polyprotein) 52.4 µM

COc1ccc2sc(-c3ccccc3OC)c(-c3ccc(OCCN4CCCC4)cc3)c2c1
inactive: IC50 [10] > 20 µM
active: AC50 [9] 5.62 µM | EC50 [11] 0.87 µM | EC50 [12] 23.6 µM | EC50 [13] 0.958 µM | EC50 [14] 50.2 µM

COc1ccc(S(=O)(=O)N(C)C[C@@H]2Oc3c(NC(=O)c4cccc5ccccc45)cccc3C(=O)N([C@@H](C)CO)C[C@H]2C)cc1
inactive: AC50 (INS1 [15]) > 195 µM
active: AC50 (INS1 [16]) 84.8 µM

C[C@@H](CN1CCC(n2c(=O)[nH]c3ccccc32)CC1)NC(=O)c1cc2cc(F)ccc2[nH]1
active: IC50 (Phospholipase D1) 0.001 µM | IC50 (Phospholipase D2) 0.13 µM

Nc1nonc1-n1nnc(C(=O)N/N=C/c2cccc(Cl)c2)c1CSc1ccc(Cl)cc1
active: AC50 (CAAX prenyl protease 2 [17]) 0.136 µM | AC50 (CAAX prenyl protease 2 [18]) 3.15 µM
